From BigSolDB 2.1

COCC(=O)Nc1c(I)c(C(=O)NCC(O)CO)c(I)c(C(=O)N(C)CC(O)CO)c1I (stereo not given)
solubility (mole fraction)
Details	273.15 K	278.15 K	283.15 K	288.15 K	293.15 K	298.15 K	303.15 K	308.15 K	313.15 K	318.15 K
in DMF	0.00368	0.0038	0.00394	0.00409	0.00427	0.00446	0.00467	0.0049	0.00517	0.00544
in acetone	3.54e-05	4.29e-05	5.29e-05	6.52e-05	7.88e-05	9.34e-05	0.00011	0.000128	0.000149	0.000171
in ethanol	0.000152	0.000178	0.000215	0.000254	0.000296	0.000339	0.000384	0.000437	0.000495	0.000558
in ethyl acetate	1.36e-05	2.01e-05	2.74e-05	3.57e-05	4.52e-05	5.65e-05	6.84e-05	8.46e-05	0.000101	0.000127
in isopropanol	5.1e-05	6.23e-05	7.52e-05	9.01e-05	0.000108	0.000128	0.00015	0.000177	0.000203	0.000233
in methanol	0.000236	0.000282	0.000349	0.000419	0.000496	0.000576	0.000666	0.00077	0.00088	0.000997
in toluene	9.9e-06	1.08e-05	1.19e-05	1.31e-05	1.43e-05	1.56e-05	1.69e-05	1.83e-05	1.97e-05	2.12e-05
